pIC50: −log10 of the molar value. Where two headings read alike, the source gives them in different places.
Molecular target: T1, TRPC5 (Homo sapiens, UniProt Q9UL62)
T1 construct: expressed in transfected cells; host or cells: HEK 293
T1 sequence (Q9UL62 1-973): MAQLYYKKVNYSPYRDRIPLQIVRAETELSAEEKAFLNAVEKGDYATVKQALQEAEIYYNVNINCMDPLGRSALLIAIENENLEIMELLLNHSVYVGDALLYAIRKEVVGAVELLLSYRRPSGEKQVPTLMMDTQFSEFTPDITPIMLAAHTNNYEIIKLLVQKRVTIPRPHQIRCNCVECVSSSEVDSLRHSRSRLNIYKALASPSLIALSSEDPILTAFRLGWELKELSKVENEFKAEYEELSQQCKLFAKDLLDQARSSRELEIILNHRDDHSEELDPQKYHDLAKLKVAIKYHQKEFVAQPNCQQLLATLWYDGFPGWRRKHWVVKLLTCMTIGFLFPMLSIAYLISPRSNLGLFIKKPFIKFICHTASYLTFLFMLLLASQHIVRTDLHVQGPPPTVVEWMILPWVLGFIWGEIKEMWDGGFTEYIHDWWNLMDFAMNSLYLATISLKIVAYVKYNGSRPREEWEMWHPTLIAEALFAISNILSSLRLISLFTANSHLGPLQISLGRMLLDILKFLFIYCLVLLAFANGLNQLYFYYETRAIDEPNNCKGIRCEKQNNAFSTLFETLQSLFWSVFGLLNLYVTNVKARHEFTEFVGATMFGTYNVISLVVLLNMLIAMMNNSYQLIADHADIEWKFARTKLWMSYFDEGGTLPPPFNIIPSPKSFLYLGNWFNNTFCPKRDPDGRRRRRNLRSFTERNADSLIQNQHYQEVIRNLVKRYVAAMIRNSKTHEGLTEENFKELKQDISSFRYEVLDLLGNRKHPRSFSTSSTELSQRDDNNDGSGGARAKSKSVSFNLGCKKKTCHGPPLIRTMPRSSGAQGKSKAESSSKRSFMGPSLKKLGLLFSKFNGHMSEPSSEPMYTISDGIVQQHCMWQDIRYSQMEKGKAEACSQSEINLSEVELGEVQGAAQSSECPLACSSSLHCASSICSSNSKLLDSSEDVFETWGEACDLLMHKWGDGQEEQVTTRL
Assay: TRPC5 automated patch clamp assay (Qpatch), current block after rosiglitazone stimulation
Format: cell-based
Settings: HEK293 cells overexpressing TRPC5
Summary of the method: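 HEK 293 cells expressing human TRPC5, whole-cell QPatch recording; 1 μM buffered free internal Ca2+, external pH 7.4. Ramps −100 to +100 mV over 300 ms every 10 s from −60 mV holding; channel activated by Rosiglitazone (30 uM) after ≥60 s control. IC50 from Hill fit.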

[1] = Table 5, rosiglitazone stimulation, 80 mV, read-out: TRPC5_QP_ XC50_80
[2] = Table 5, rosiglitazone stimulation, 100 mV, read-out: TRPC5_QP_ XC50_100
[3] = Table 6, read-out: TRPC5-QPatch IC50
[4] = Table 3, rosiglitazone stimulation, 80 mV, read-out: TRPC5_QP_ XC50_80
[5] = Table 3, rosiglitazone stimulation, 100 mV, read-out: TRPC5_QP_ XC50_100
[6] = Table 4, rosiglitazone stimulation, 80 mV, read-out: TRPC5_QP_ XC50_80
[7] = Table 4, rosiglitazone stimulation, 100 mV, read-out: TRPC5_QP_ XC50_100

SMILES	pIC50 [1]	pIC50 [2]	further results
Cc1cc(F)ccc1CN1CCN(c2cc(-c3ccccc3)n[nH]c2=O)CC1	5.30 to 6.00		
Cc1ccccc1CN1CC2(CCN(c3cn[nH]c(=O)c3Cl)CC2)C1	5.30 to 6.00	5.30 to 6.00	
O=C1CN(c2c(Br)n[nH]c(=O)c2Cl)CCN1Cc1ccccc1C(F)(F)F	5.30 to 6.00	5.00 to 5.30	
Cc1cc(F)ccc1CN1CCN(c2c(Br)n[nH]c(=O)c2Cl)CC1=O	3.30 to 5.00	3.30 to 5.00	
Cc1cc(F)ccc1CN1CCN(c2c(C)n[nH]c(=O)c2Cl)CC1=O	3.30 to 5.00	3.30 to 5.00	
Cc1ccccc1CN1CCN(c2ccn[nH]c2=O)CC1=O	3.30 to 5.00	3.30 to 5.00	
O=C1CN(c2cn[nH]c(=O)c2C(F)(F)F)CCN1Cc1ccccc1C(F)(F)F	5.30 to 6.00	5.30 to 6.00	
O=C1N(Cc2ccccc2C(F)(F)F)CCC12CCN(c1cn[nH]c(=O)c1Cl)CC2	3.30 to 5.00	3.30 to 5.00	
O=C1N(Cc2ccccc2C(F)(F)F)CCC12CCN(c1cn[nH]c(=O)c1Br)CC2	3.30 to 5.00	3.30 to 5.00	
Cc1cc(F)ccc1CN1CCN(c2c(Br)n[nH]c(=O)c2Cl)CC1	3.30 to 5.00	3.30 to 5.00	
O=C1CN(c2cn[nH]c(=O)c2Cl)CCN1CC1CCC(F)(F)CC1	5.00 to 5.30	5.00 to 5.30	
Cc1n[nH]c(=O)c(Cl)c1N1CCN(Cc2ccc(F)cc2C(F)(F)F)C(=O)C1	5.00 to 5.30	5.00 to 5.30	
O=C1CN(c2c(Cl)cn[nH]c2=O)CCN1Cc1ccccc1OC(F)(F)F	3.30 to 5.00	3.30 to 5.00	
Cc1cc(F)ccc1CN1CCN(c2ccn[nH]c2=O)CC1	3.30 to 5.00	3.30 to 5.00	
O=c1[nH]ncc(N2CCc3c(ncn3-c3cccnc3C(F)(F)F)C2)c1Cl			pIC50 [3]: 5.30 to 6.00
Cc1ccccc1CN1CCN(c2cn[nH]c(=O)c2Cl)CC1=O [drawing 631]			pIC50 (rosiglitazone stimulation, 80 mV, read-out: TRPC5_QP XC50_80): 6.00 to 11.00; pIC50 (rosiglitazone stimulation, 100 mV, read-out: TRPC5_QP XC50_100): 6.00 to 11.00
Cc1ccccc1CN1CCN(c2cn[nH]c(=O)c2Br)C(C)C1 (centres unmarked) [drawing 647]			pIC50 [4]: 5.30 to 6.00; pIC50 [5]: 5.30 to 6.00
Cc1ccccc1CN1CCN(c2cn[nH]c(=O)c2Br)CC1C (centres unmarked) [drawing 649]			pIC50 [4]: 3.30 to 5.00; pIC50 [5]: 3.30 to 5.00
Cc1ccccc1CN1CCN(c2cn[nH]c(=O)c2Br)C(C)C1 (centres unmarked) [drawing 650]			pIC50 [4]: 3.30 to 5.00; pIC50 [5]: 3.30 to 5.00
Cc1ccccc1CN1CCN(c2cn[nH]c(=O)c2Br)CC1C (centres unmarked) [drawing 651]			pIC50 [5]: 3.30 to 5.00
Cc1ccccc1CN1CCN(c2cn[nH]c(=O)c2Cl)CC1=O [drawing 664]			pIC50 [4]: 6.00 to 11.00; pIC50 [5]: 6.00 to 11.00
O=C1CN(c2cn[nH]c(=O)c2Br)CCN1Cc1cccc2ccccc12 [drawing 665]			pIC50 [4]: 6.00 to 11.00; pIC50 [5]: 6.00 to 11.00

SMILES	pIC50 [1]	pIC50 [2]	further results
CN(C)C(=O)CN1CCN(c2cn[nH]c(=O)c2Cl)CC1 [drawing 673]			pIC50 [4]: 3.30 to 5.00; pIC50 [5]: 3.30 to 5.00
O=c1[nH]ncc(N2CCN(Cc3ccccc3Cl)CC2)c1Cl [drawing 676]			pIC50 [4]: 5.30 to 6.00; pIC50 [5]: 5.30 to 6.00
Cc1cc(F)ccc1CN1CCN(c2cn[nH]c(=O)c2Cl)CC1 [drawing 679]			pIC50 [4]: 5.30 to 6.00; pIC50 [5]: 5.30 to 6.00
O=C1CN(c2cn[nH]c(=O)c2Cl)CCN1Cc1ccc(F)cc1Cl [drawing 682]			pIC50 [4]: 5.30 to 6.00; pIC50 [5]: 5.30 to 6.00
O=C1CN(c2cn[nH]c(=O)c2Cl)CCN1Cc1ccc(F)cc1F [drawing 686]			pIC50 [4]: 5.30 to 6.00; pIC50 [5]: 5.30 to 6.00
O=C1CN(c2cn[nH]c(=O)c2Cl)CCN1Cc1ccccc1OC(F)(F)F [drawing 689]			pIC50 [4]: 6.00 to 11.00; pIC50 [5]: 6.00 to 11.00
O=c1[nH]ncc(N2CCN(Cc3ccccc3C(F)(F)F)CC2)c1Cl [drawing 694]			pIC50 [4]: 5.30 to 6.00; pIC50 [5]: 5.30 to 6.00
Cc1ccccc1CN1CCN(c2cn[nH]c(=O)c2CCC(C)C)CC1=O [drawing 695]			pIC50 [4]: 3.30 to 5.00; pIC50 [5]: 3.30 to 5.00
O=c1[nH]ncc(N2CCN(Cc3ccccc3C(F)(F)F)CC2)c1Cl [drawing 699]			pIC50 [6]: 5.30 to 6.00; pIC50 [7]: 5.30 to 6.00
Cc1ccccc1CN1CCN(c2cn[nH]c(=O)c2CCC(C)C)CC1=O [drawing 700]			pIC50 [6]: 3.30 to 5.00; pIC50 [7]: 3.30 to 5.00
CN(C)C(=O)CN1CCN(c2cn[nH]c(=O)c2Cl)CC1 [drawing 708]			pIC50 [6]: 3.30 to 5.00; pIC50 [7]: 3.30 to 5.00
C[C@@H]1CN(Cc2ccccc2C(F)(F)F)CCN1c1cn[nH]c(=O)c1Cl [drawing 716]			pIC50 [6]: 5.30 to 6.00; pIC50 [7]: 5.30 to 6.00
Cc1ncccc1CN1CCN(c2cn[nH]c(=O)c2Cl)CC1 [drawing 719]			pIC50 [6]: 6.00 to 11.00; pIC50 [7]: 6.00 to 11.00
Cc1cc(Cl)ccc1CN1CCN(c2cn[nH]c(=O)c2Cl)CC1=O [drawing 737]			pIC50 [6]: 5.30 to 6.00; pIC50 [7]: 5.30 to 6.00
Cc1ccccc1[C@H](C)N1CCN(c2cn[nH]c(=O)c2Cl)CC1=O [drawing 743]			pIC50 [6]: 6.00 to 11.00; pIC50 [7]: 6.00 to 11.00
Cc1ccccc1Cn1cnc2c1CCN(c1cn[nH]c(=O)c1Cl)C2 [drawing 830]	6.00 to 11.00	6.00 to 11.00	
O=c1[nH]ncc(N2CCc3c(ncn3Cc3ccccc3)C2)c1Cl [drawing 831]	5.30 to 6.00	5.30 to 6.00	
C[C@H](c1ccccc1)n1cnc2c1CCN(c1cn[nH]c(=O)c1Cl)C2 [drawing 833]	5.30 to 6.00	5.30 to 6.00	
O=c1[nH]ncc(N2CCc3c(ncn3Cc3ccccc3C(F)F)C2)c1Cl [drawing 839]			pIC50 [3]: 5.00 to 5.30
CCc1cc(F)ccc1Cn1cnc2c1CCN(c1cn[nH]c(=O)c1Cl)C2 [drawing 889]			pIC50 [3]: 6.00 to 11.00
N#Cc1c(N2CCc3c(nnn3Cc3ccccc3C(F)(F)F)C2)cn[nH]c1=O [drawing 891]			pIC50 [3]: 5.30 to 6.00

Continued, in another order:

pIC50 [1]	pIC50 [2]	SMILES	further results
3.30 to 5.00	3.30 to 5.00	O=C1CN(c2cn[nH]c(=O)c2Cl)CCN1Cc1cccc2cn[nH]c12	
3.30 to 5.00	3.30 to 5.00	Cc1ccccc1CN1CCN(c2c(Cl)cn[nH]c2=O)CC1=O	
5.30 to 6.00	3.30 to 5.00	Cc1cc(C(F)(F)F)ccc1CN1CCN(c2cn[nH]c(=O)c2Cl)CC1=O	
3.30 to 5.00	3.30 to 5.00	O=C1CN(c2c(Cl)cn[nH]c2=O)CCN1Cc1ccc(OC(F)(F)F)cc1	
3.30 to 5.00	3.30 to 5.00	O=C1CN(c2cn[nH]c(=O)c2Cl)CCN1Cc1cccc2[nH]ncc12	
5.00 to 5.30	5.00 to 5.30	Cc1cc(F)ccc1CN1CCN(c2cn[nH]c(=O)c2C(F)(F)F)CC1=O	
3.30 to 5.00	3.30 to 5.00	O=C1CN(c2c(Cl)cn[nH]c2=O)CCN1Cc1cccc(C(F)(F)F)c1	
3.30 to 5.00	3.30 to 5.00	O=C1CN(c2c(Cl)cn[nH]c2=O)CCN1Cc1cccc(OC(F)(F)F)c1	
3.30 to 5.00	3.30 to 5.00	O=C1CN(c2c(Cl)cn[nH]c2=O)CCN1Cc1ccc(F)cc1F	
3.30 to 5.00	3.30 to 5.00	Cc1ncccc1CN1CCN(c2cn[nH]c(=O)c2Cl)CC1=O	
5.00 to 5.30	5.00 to 5.30	O=C1CN(c2cn[nH]c(=O)c2Cl)CCN1Cc1ccc(F)cc1	
5.30 to 6.00	5.30 to 6.00	COc1cc(F)ccc1CN1CCN(c2cn[nH]c(=O)c2Cl)CC1=O [drawing 772]	
